# Data taken from PubChem BioAssay AID1963833 (Molecular Pharmacology Branch, DTP, NCI, 2024).
# pIC50: −log10 of the molar value.
# Tested on: 883617-216-R-J1-PDC complex spheroid viability
# Test: Anticancer human tumor 883617-216-R-J1-PDC patient-derived bladder carcinoma cell line growth inhibition [POLQ]
# Conditions: for pIC50: curve of first compound; for viability, T/C: stronger effect = lower value
# In short: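 Patient-derived tumour cells were co-cultured with HUVEC and mesenchymal stem cells as multicellular spheroids at 37 °C. They were treated with POLQ inhibitors (novobiocin, ART-558, RP6685) alone or combined with other agents. Top concentrations were at or near clinical Cmax (otherwise 10 microM; SN-38 at 1 microM), decreasing in half-log steps.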
# [1] = second compound 0.0316 µM, first compound 0.00316 µM
# [2] = second compound 0.0316 µM, first compound 0.01 µM
# [3] = second compound 0.0316 µM, first compound 0.0316 µM
# [4] = second compound 0.0316 µM, first compound 0.1 µM
# [5] = second compound 0.0316 µM, first compound 0.316 µM
# [6] = second compound 0.0316 µM, first compound 1 µM
# [7] = second compound 0.1 µM, first compound 0.00316 µM
# [8] = second compound 0.1 µM, first compound 0.01 µM
# [9] = second compound 0.1 µM, first compound 0.0316 µM
# [10] = second compound 0.1 µM, first compound 0.1 µM
# [11] = second compound 0.1 µM, first compound 0.316 µM
# [12] = second compound 0.1 µM, first compound 1 µM
# [13] = second compound 0.316 µM, first compound 0.00316 µM
# [14] = second compound 0.316 µM, first compound 0.01 µM
# [15] = second compound 0.316 µM, first compound 0.0316 µM
# [16] = second compound 0.316 µM, first compound 0.1 µM
# [17] = second compound 0.316 µM, first compound 0.316 µM
# [18] = second compound 0.316 µM, first compound 1 µM
# [19] = second compound 1 µM, first compound 0.00316 µM
# [20] = second compound 1 µM, first compound 0.01 µM
# [21] = second compound 1 µM, first compound 0.0316 µM
# [22] = second compound 1 µM, first compound 0.1 µM
# [23] = second compound 1 µM, first compound 0.316 µM
# [24] = second compound 1 µM, first compound 1 µM
# [25] = second compound 3.16 µM, first compound 0.00316 µM
# [26] = second compound 3.16 µM, first compound 0.01 µM
# [27] = second compound 3.16 µM, first compound 0.0316 µM
# [28] = second compound 3.16 µM, first compound 0.1 µM
# [29] = second compound 3.16 µM, first compound 0.316 µM
# [30] = second compound 3.16 µM, first compound 1 µM
# [31] = second compound 10 µM, first compound 0.00316 µM
# [32] = second compound 10 µM, first compound 0.01 µM
# [33] = second compound 10 µM, first compound 0.0316 µM
# [34] = second compound 10 µM, first compound 0.1 µM
# [35] = second compound 10 µM, first compound 0.316 µM
# [36] = second compound 10 µM, first compound 1 µM
# [37] = second compound 0.0316 µM, first compound 3.16 µM
# [38] = second compound 0.0316 µM, first compound 10 µM
# [39] = second compound 0.1 µM, first compound 3.16 µM
# [40] = second compound 0.1 µM, first compound 10 µM
# [41] = second compound 0.316 µM, first compound 3.16 µM
# [42] = second compound 0.316 µM, first compound 10 µM
# [43] = second compound 1 µM, first compound 3.16 µM
# [44] = second compound 1 µM, first compound 10 µM
# [45] = second compound 3.16 µM, first compound 3.16 µM
# [46] = second compound 3.16 µM, first compound 10 µM
# [47] = second compound 10 µM, first compound 3.16 µM
# [48] = second compound 10 µM, first compound 10 µM
# 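Further: spheroids exposed to compounds for seven days before readout.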
# 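Wherever viability, T/C is given: 100% = DMSO vehicle control viability.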
smiles,measurement,setting,value
CCc1c2c(nc3ccc(O)cc13)-c1cc3c(c(=O)n1C2)COC(=O)[C@]3(O)CC + Cc1cccc(N(C)C(=O)C2C(O)CCN2c2nc(C)cc(C(F)(F)F)c2C#N)c1,pIC50,second compound 0.0316 µM,7.00
same,pIC50,second compound 0.1 µM,7.16
same,pIC50,second compound 0.316 µM,7.07
same,pIC50,second compound 1 µM,7.20
same,pIC50,second compound 3.16 µM,7.22
same,pIC50,second compound 10 µM,6.90
same,"viability, T/C",[1],59.4%
same,"viability, T/C",[2],58.6%
same,"viability, T/C",[3],52.8%
same,"viability, T/C",[4],52%
same,"viability, T/C",[5],34.2%
same,"viability, T/C",[6],21.2%
same,"viability, T/C",[7],71.4%
same,"viability, T/C",[8],60.8%
same,"viability, T/C",[9],57.9%
same,"viability, T/C",[10],46.9%
same,"viability, T/C",[11],37.7%
same,"viability, T/C",[12],25%
same,"viability, T/C",[13],60.1%
same,"viability, T/C",[14],66.2%
same,"viability, T/C",[15],55%
same,"viability, T/C",[16],49.6%
same,"viability, T/C",[17],32.6%
same,"viability, T/C",[18],17.6%
same,"viability, T/C",[19],65.1%
same,"viability, T/C",[20],61.7%
same,"viability, T/C",[21],60.8%
same,"viability, T/C",[22],41.3%
same,"viability, T/C",[23],33.6%
same,"viability, T/C",[24],20.5%
same,"viability, T/C",[25],71.6%
same,"viability, T/C",[26],59.7%
same,"viability, T/C",[27],54.8%
same,"viability, T/C",[28],45.3%
same,"viability, T/C",[29],40.6%
same,"viability, T/C",[30],22.4%
same,"viability, T/C",[31],79.8%
same,"viability, T/C",[32],70.5%
same,"viability, T/C",[33],62.1%
same,"viability, T/C",[34],49.1%
same,"viability, T/C",[35],44.9%
same,"viability, T/C",[36],13.5%
CCc1cc2c(N3CCc4c(cc(Cn5ccnc5)cc4-c4cn(C)nc4C(F)(F)F)C3=O)cc(C)nc2c(OC)n1 + COC1C(OC(N)=O)C(O)C(Oc2ccc3c(O)c(NC(=O)c4ccc(O)c(CC=C(C)C)c4)c(=O)oc3c2C)OC1(C)C,pIC50,second compound 0.0316 µM,< 5.00
same,pIC50,second compound 0.1 µM,5.06
same,pIC50,second compound 0.316 µM,5.03
same,pIC50,second compound 1 µM,< 5.00
same,pIC50,second compound 3.16 µM,< 5.00
same,pIC50,second compound 10 µM,< 5.00
same,"viability, T/C",[3],96.2%
same,"viability, T/C",[4],105%
same,"viability, T/C",[5],96.8%
same,"viability, T/C",[6],80.6%
same,"viability, T/C",[37],77.2%
same,"viability, T/C",[38],58.9%
same,"viability, T/C",[9],98.4%
same,"viability, T/C",[10],106%
same,"viability, T/C",[11],109%
same,"viability, T/C",[12],94.9%
same,"viability, T/C",[39],68%
same,"viability, T/C",[40],47.6%
same,"viability, T/C",[15],107%
same,"viability, T/C",[16],109%
same,"viability, T/C",[17],105%
same,"viability, T/C",[18],86.2%
same,"viability, T/C",[41],75%
same,"viability, T/C",[42],48%
same,"viability, T/C",[21],99%
same,"viability, T/C",[22],101%
same,"viability, T/C",[23],96.6%
same,"viability, T/C",[24],106%
same,"viability, T/C",[43],75.3%
same,"viability, T/C",[44],61.3%
same,"viability, T/C",[27],96.3%
same,"viability, T/C",[28],103%
same,"viability, T/C",[29],115%
same,"viability, T/C",[30],89.7%
same,"viability, T/C",[45],75.8%
same,"viability, T/C",[46],58.4%
same,"viability, T/C",[33],99.8%
same,"viability, T/C",[34],99.6%
same,"viability, T/C",[35],97.1%
same,"viability, T/C",[36],97.4%
same,"viability, T/C",[47],72.7%
same,"viability, T/C",[48],59.4%
CCc1cc2c(N3CCc4c(cc(Cn5ccnc5)cc4-c4cn(C)nc4C(F)(F)F)C3=O)ccnc2c(OC)n1 + Nc1ccc(C#CCN(C(=O)Cc2ncc(C(F)(F)F)cc2C(F)(F)F)c2ccc(F)cc2)nn1,pIC50,second compound 0.0316 µM,5.02
same,pIC50,second compound 0.1 µM,5.00
same,pIC50,second compound 0.316 µM,< 5.00
same,pIC50,second compound 1 µM,< 5.00
same,pIC50,second compound 3.16 µM,< 5.00
same,pIC50,second compound 10 µM,< 5.00
same,"viability, T/C",[3],109%
same,"viability, T/C",[4],97.5%
same,"viability, T/C",[5],91.4%
same,"viability, T/C",[6],104%
same,"viability, T/C",[37],80.4%
same,"viability, T/C",[38],48.8%
same,"viability, T/C",[9],91.1%
same,"viability, T/C",[10],109%
same,"viability, T/C",[11],103%
same,"viability, T/C",[12],105%
same,"viability, T/C",[39],86%
same,"viability, T/C",[40],49.8%
same,"viability, T/C",[15],98.8%
same,"viability, T/C",[16],107%
same,"viability, T/C",[17],102%
same,"viability, T/C",[18],91.1%
same,"viability, T/C",[41],84.8%
same,"viability, T/C",[42],59%
same,"viability, T/C",[21],95.6%
same,"viability, T/C",[22],104%
same,"viability, T/C",[23],97.9%
same,"viability, T/C",[24],94.9%
same,"viability, T/C",[43],88.9%
same,"viability, T/C",[44],61%
same,"viability, T/C",[27],109%
same,"viability, T/C",[28],97.7%
same,"viability, T/C",[29],110%
same,"viability, T/C",[30],102%
same,"viability, T/C",[45],82.3%
same,"viability, T/C",[46],69.6%
same,"viability, T/C",[33],105%
same,"viability, T/C",[34],99.6%
same,"viability, T/C",[35],107%
same,"viability, T/C",[36],108%
same,"viability, T/C",[47],82.9%
same,"viability, T/C",[48],57.8%
Cn1ncnc1[C@H]1c2n[nH]c(=O)c3cc(F)cc(c23)N[C@@H]1c1ccc(F)cc1 + Nc1ccc(C#CCN(C(=O)Cc2ncc(C(F)(F)F)cc2C(F)(F)F)c2ccc(F)cc2)nn1,pIC50,second compound 0.0316 µM,< 7.00
same,pIC50,second compound 0.1 µM,< 7.00
same,pIC50,second compound 0.316 µM,< 7.00
same,pIC50,second compound 1 µM,< 7.00
same,pIC50,second compound 3.16 µM,< 7.00
same,pIC50,second compound 10 µM,< 7.00
same,"viability, T/C","second compound 0.0316 µM, first compound 0.000316 µM",87.9%
same,"viability, T/C","second compound 0.0316 µM, first compound 0.001 µM",94.4%
same,"viability, T/C",[1],99.1%
same,"viability, T/C",[2],82.4%
same,"viability, T/C",[3],72%
same,"viability, T/C",[4],78.9%
same,"viability, T/C","second compound 0.1 µM, first compound 0.000316 µM",93.8%
same,"viability, T/C","second compound 0.1 µM, first compound 0.001 µM",97.5%
same,"viability, T/C",[7],97.7%
same,"viability, T/C",[8],79.7%
same,"viability, T/C",[9],85.4%
same,"viability, T/C",[10],80.7%
same,"viability, T/C","second compound 0.316 µM, first compound 0.000316 µM",82.9%
same,"viability, T/C","second compound 0.316 µM, first compound 0.001 µM",111%
same,"viability, T/C",[13],91.9%
same,"viability, T/C",[14],87.9%
same,"viability, T/C",[15],83%
same,"viability, T/C",[16],77.5%
same,"viability, T/C","second compound 1 µM, first compound 0.000316 µM",91.9%
same,"viability, T/C","second compound 1 µM, first compound 0.001 µM",94.4%
same,"viability, T/C",[19],104%
same,"viability, T/C",[20],93.1%
same,"viability, T/C",[21],84.5%
same,"viability, T/C",[22],81.8%
same,"viability, T/C","second compound 3.16 µM, first compound 0.000316 µM",101%
same,"viability, T/C","second compound 3.16 µM, first compound 0.001 µM",112%
same,"viability, T/C",[25],90.2%
same,"viability, T/C",[26],109%
same,"viability, T/C",[27],86%
same,"viability, T/C",[28],67.8%
same,"viability, T/C","second compound 10 µM, first compound 0.000316 µM",100%
same,"viability, T/C","second compound 10 µM, first compound 0.001 µM",102%
same,"viability, T/C",[31],102%
same,"viability, T/C",[32],95.8%
same,"viability, T/C",[33],118%
same,"viability, T/C",[34],92.2%
